These results are taken from the supplement of paper PMC10307832.

Holding throughout (test): relative viability (nuclei count vs DMSO), 5 days (fraction); higher = more cells survive
Compound in assay [1]: CC1=CC=C(C=C1)C(=O)CN2C3=C(CCCC3)SC2=N [Pifithrin_alpha] + Cc1nc(Nc2ncc(C(=O)Nc3c(C)cccc3Cl)s2)cc(N2CCN(CCO)CC2)n1 [Dasatinib] (partner 0.075 µM)
The gist of the method:
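After 5 days of treatment, lung cancer cells in 1536-well plates were fixed and stained in a single step (final 0.05% Triton X-100, 1% formaldehyde, 1 ug/ml Hoechst) and their nuclei counted on 4× images. Treatment had been applied by pin tool the day after seeding as one drug alone or as a fixed anchor-drug dose with five library-drug doses (not always all listed) in √10 steps. Relative viability is the nuclei count of treated wells divided by that of vehicle wells, and values are medians of duplicate plates.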

Compound in the next assay: CNC(=O)c1ccccc1Sc1ccc2c(/C=C/c3ccccn3)n[nH]c2c1 [Axitinib]
The gist of the method:
(§1)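 After an overnight hold at 37 °C, lung cancer cell lines in 1536-well plates were pinned with five library-drug doses (not always all listed), each √10 from the next, on vehicle-anchored plates. The cells stayed 5 days without fresh medium, then a one-step fix, permeabilisation and Hoechst stain preceded 4× imaging and MetaXpress nuclear counts. A plate passed only with control CV under 25% and at least one doubling. Viability is the median, over plates, of treated-well nuclei relative to vehicle-well nuclei.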

Compound in the next assay: CC1=CC=C(C=C1)C(=O)CN2C3=C(CCCC3)SC2=N [Pifithrin_alpha]
The gist of the method: as §1

Compound in another assay: Nc1nc(Nc2ccc3c(c2)CC[C@@H](N2CCCC2)CC3)nn1-c1cc2c(nn1)-c1ccccc1CCC2 [Bemcentinib]
The method in brief: as §1

Turning to NCI-H650, the relative viability in assay [1] (first compound 3.162 µM) amounted to 0.489; in assay [1] (first compound 10 µM), 0.441; in assay [1] (first compound 31.62 µM), 0.415; in assay [1] (first compound 100 µM), 0.388; with Axitinib (0.005 µM), 1.01; with Axitinib (0.01581 µM) it was 0.983. Also, the relative viability with Axitinib (0.05 µM) is 0.892; with Axitinib (0.1581 µM) it was 1.1; with Axitinib (0.5 µM), 1.01; with Pifithrin_alpha (3.162 µM) it was 0.912; with Pifithrin_alpha (10 µM) it was 1.07; in the assay with Pifithrin_alpha (31.62 µM) it was 0.766. Further, the relative viability with Pifithrin_alpha (100 µM) is 0.863; in the assay with Bemcentinib (0.04 µM) it was 0.866; with Bemcentinib (0.1265 µM), 1.01; in the assay with Bemcentinib (0.4 µM) it was 1.15; with Bemcentinib (1.265 µM), 0.838; with Bemcentinib (4 µM), 0.871.
